The source of these data is US9586952B2, “Polycyclic estrogen receptor modulators and uses thereof” (SERAGON PHARMACEUTICALS, INC., priority 2013, dated 2017).

As usually defined, the IC50 is the concentration that inhibits the measured activity by half. Low readings indicate greater potency in that assay, high ones weaker potency in that assay.

One assay deals with MCF-7 cells. As to the kind of experiment: MCF7 Viability Assay (Breast Cancer Cell Viability Assay). The note with it: 5 days' compound exposure, CellTiter-Glo; for IC50: Homo sapiens, MCF7, 120 h. The assay is classed as cell-based. The gist of the method:
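Cells (320 per well, RPMI with 10% FBS and 20 mM HEPES) adhered overnight, then were exposed 5 days to an eleven-point semilog compound series, 0.3-0.000003 μM final. Viability read by CellTiter-Glo luminescence, background-subtracted, expressed as % of untreated cells.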
(In general: In ATP-based viability assays light output follows the ATP content of the culture.)

A further assay deals with T1, ER-α (Homo sapiens, UniProt P03372).
T1 construct: endogenous in cells; host or cells: MCF-7
T1 sequence (P03372 1-595): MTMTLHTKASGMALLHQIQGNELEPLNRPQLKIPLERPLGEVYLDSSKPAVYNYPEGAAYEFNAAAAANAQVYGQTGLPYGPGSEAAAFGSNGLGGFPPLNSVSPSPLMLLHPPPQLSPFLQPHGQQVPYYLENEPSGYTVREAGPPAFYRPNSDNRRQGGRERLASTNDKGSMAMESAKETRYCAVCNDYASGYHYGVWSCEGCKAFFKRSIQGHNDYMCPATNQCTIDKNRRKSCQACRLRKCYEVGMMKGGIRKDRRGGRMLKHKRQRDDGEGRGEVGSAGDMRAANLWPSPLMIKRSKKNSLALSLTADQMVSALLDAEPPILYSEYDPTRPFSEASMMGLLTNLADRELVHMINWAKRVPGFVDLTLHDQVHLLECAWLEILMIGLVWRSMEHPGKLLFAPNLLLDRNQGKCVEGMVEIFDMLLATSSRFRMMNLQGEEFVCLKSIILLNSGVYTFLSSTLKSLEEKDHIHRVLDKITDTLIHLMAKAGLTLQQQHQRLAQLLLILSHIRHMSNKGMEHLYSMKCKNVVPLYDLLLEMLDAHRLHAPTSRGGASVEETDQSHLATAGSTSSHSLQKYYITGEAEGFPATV
The assay can be described thus: Breast Cancer Cell ER-α In Cell Western Assay (SP1). The format is cell-based. Particulars: MCF-7 cells, 4 or 24 hr post compound addition, SP1 antibody; for Emax: MCF7, read-out: ER-α In Cell Western Assay (SP1) Max Response; for DC50: read-out: ER-α In Cell Western Assay (SP1) IC50. Summed up:
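MCF-7 cells in RPMI with 10% charcoal-stripped FBS received an eleven-point semilog series, 0.3-0.000003 μM final, for 4 or 24 hr. After fixation, ER-α stained with SP1 antibody and IRDye 800 CW, DNA with DRAQ5; % ER = 800/700 nm intensity ratio relative to untreated cells.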

Turning to `O=C(O)/C=C/c1ccc(/C(=C(\c2ncc(C(F)(F)F)cc2Cl)C2CCC2)c2ccc(-c3cn[nH]c3)cc2)cc1` [Example 58, (E)-3-(4-((E)-1-(4-(1H-Pyrazol-4-yl)phenyl)-2-(3-chloro-5-(trifluoromethyl)pyridin-2-yl)-2-cyclobutylvinyl)phenyl)acrylic acid], in the assay on MCF-7 cells, the “MCF7 Viability Assay Max Response” value is “++ (++ = a single % value ≧ 40%)” and the half-maximal inhibitory concentration (IC50) was not above 100 nM. At ER-α, the Emax is not below 40% and the DC50 is not above 100 nM.

As for `O=C(O)/C=C/c1ccc(/C(=C(\c2ncc(C(F)(F)F)cc2Cl)C2CCC2)c2ccc(-c3cncs3)cc2)cc1` [Example 59, (E)-3-(4-((E)-2-(3-Chloro-5-(trifluoromethyl)pyridin-2-yl)-2-cyclobutyl-1-(4-(thiazol-5-yl)phenyl)vinyl)phenyl)acrylic acid], in the assay with MCF-7 cells, the “MCF7 Viability Assay Max Response” value is on record as “++ (++ = a single % value ≧ 40%)” and the IC50 was not above 100 nM. For the same compound, at ER-α, the Emax is not below 40% and the DC50 was not above 100 nM.

For the compound `N#Cc1cc(N2CCOCC2)ccc1/C(=C(/c1ccc(F)cc1Cl)C1CCC1)c1ccc(/C=C/C(=O)O)cc1` [Example 60, (E)-3-(4-((E)-2-(2-Chloro-4-fluorophenyl)-1-(2-cyano-4-morpholinophenyl)-2-cyclobutylvinyl)phenyl)acrylic acid], in the assay on MCF-7 cells, the “MCF7 Viability Assay Max Response” value was “++ (++ = a single % value ≧ 40%)” and the 50% inhibitory concentration (IC50) was not above 100 nM. In addition, on ER-α, the Emax was not below 40% and the DC50 is not above 100 nM.

On to `COc1cc(C)c(/C(=C(\c2ccc(/C=C/C(=O)O)cc2)c2ccc(-c3cn[nH]c3)cc2)C2CCC2)cn1` [Example 61, (E)-3-(4-((E)-1-(4-(1H-Pyrazol-4-yl)phenyl)-2-cyclobutyl-2-(6-methoxy-4-methylpyridin-3-yl)vinyl)phenyl)acrylic acid], for which, in the assay on MCF-7 cells, the “MCF7 Viability Assay Max Response” value is “++ (++ = a single % value ≧ 40%)” and the IC50 is not above 100 nM. Moreover, on ER-α, the Emax was not below 40% and the DC50 was not above 100 nM.

On to `N#Cc1cc(Cl)ccc1/C(=C(\c1ccc(/C=C/C(=O)O)cc1)c1ccc(-c2cncs2)cc1)C1CCC1` [Example 62, (E)-3-(4-((E)-2-(4-Chloro-2-cyanophenyl)-2-cyclobutyl-1-(4-(thiazol-5-yl)phenyl)vinyl)phenyl)acrylic acid], for which, in the assay with MCF-7 cells, the “MCF7 Viability Assay Max Response” value was “++ (++ = a single % value ≧ 40%)” and the half-maximal inhibitory concentration (IC50) is not above 100 nM. In addition, on ER-α, the Emax was not below 40% and the DC50 was not above 100 nM.

As to `c1ccc(/C(=C(\c2ccc(OCCN3CCCC3)cc2)c2ccc(-c3cn[nH]c3)cc2)C2CCC2)cc1` [Example 63, (Z)-4-(4-(2-cyclobutyl-2-phenyl-1-(4-(2-(pyrrolidin-1-yl)ethoxy)phenyl)vinyl)phenyl)-1H-pyrazole], in the assay on MCF-7 cells, the “MCF7 Viability Assay Max Response” value is “++ (++ = a single % value ≧ 40%)” and the concentration for half-maximal inhibition (IC50) was not above 100 nM. In addition, at ER-α, the Emax was not below 40% and the DC50 was not above 100 nM.

As to `CC1CCN(c2ccc(/C(=C(/c3ccccc3)C3CCC3)c3ccc(/C=C/C(=O)O)cc3)cc2)CC1` [Example 64, (E)-3-(4-((E)-2-Cyclobutyl-1-(4-(4-methylpiperidin-1-yl)phenyl)-2-phenylvinyl)phenyl)acrylic acid], in the assay with MCF-7 cells, the “MCF7 Viability Assay Max Response” value was “++ (++ = a single % value ≧ 40%)” and the IC50 is more than 100 nM. On ER-α, the Emax was not below 40% and the DC50 is more than 100 nM.

For the compound `O=C(O)/C=C/c1ccc(/C(=C(\c2ccccc2)C2CCC2)c2ccc(N3CCNCC3)cc2)cc1` [Example 65, (E)-3-(4-((E)-2-Cyclobutyl-2-phenyl-1-(4-(piperazin-1-yl)phenyl)vinyl)phenyl)acrylic acid], in the assay on MCF-7 cells, the “MCF7 Viability Assay Max Response” value is recorded as “++ (++ = a single % value ≧ 40%)” and the IC50 was not above 100 nM. Also, on ER-α, the Emax is not below 40% and the DC50 is not above 100 nM.

In the case of `O=C(O)/C=C/c1ccc(/C(=C(\c2ccccc2)C2CCC2)c2ccc(-c3ccncc3)cc2)cc1` [Example 66, (E)-3-(4-((E)-2-Cyclobutyl-2-phenyl-1-(4-(pyridin-4-yl)phenyl)vinyl)phenyl)acrylic acid], in the assay on MCF-7 cells, the “MCF7 Viability Assay Max Response” value is on record as “++ (++ = a single % value ≧ 40%)” and the IC50 was not above 100 nM. Also, at ER-α, the Emax was not below 40% and the DC50 was not above 100 nM.

With `O=C(O)/C=C/c1ccc(/C(=C(\c2ccccc2)C2CCC2)c2ccc(-c3cnn(CCO)c3)cc2)cc1` [Example 67, (E)-3-(4-((E)-2-Cyclobutyl-1-(4-(1-(2-hydroxyethyl)-1H-pyrazol-4-yl)phenyl)-2-phenylvinyl)phenyl)acrylic acid], in the assay with MCF-7 cells, the “MCF7 Viability Assay Max Response” value was “++ (++ = a single % value ≧ 40%)” and the IC50 is not above 100 nM. On ER-α, the Emax was not below 40% and the DC50 was not above 100 nM.

On to `Cc1cscc1/C(=C(\c1ccc(/C=C/C(=O)O)cc1)c1ccc(-c2cnn(CCO)c2)cc1)C1CCC1` [Example 68, (E)-3-(4-((E)-2-Cyclobutyl-1-(4-(1-(2-hydroxyethyl)-1H-pyrazol-4-yl)phenyl)-2-(4-methylthiophen-3-yl)vinyl)phenyl)acrylic acid], for which, in the assay on MCF-7 cells, the “MCF7 Viability Assay Max Response” value is given as “++ (++ = a single % value ≧ 40%)” and the concentration for half-maximal inhibition (IC50) is not above 100 nM. In addition, on ER-α, the Emax was not below 40% and the DC50 is not above 100 nM.

With `O=C(O)/C=C/c1ccc(/C(=C(\c2ccc(F)cc2Cl)C2CCC2)c2ccc(-c3cnn(CCO)c3)cc2)cc1` [Example 69, (E)-3-(4-((E)-2-(2-Chloro-4-fluorophenyl)-2-cyclobutyl-1-(4-(1-(2-hydroxyethyl)-1H-pyrazol-4-yl)phenyl)vinyl)phenyl)acrylic acid], in the assay on MCF-7 cells, the “MCF7 Viability Assay Max Response” value was “++ (++ = a single % value ≧ 40%)” and the IC50 was not above 100 nM. For the same compound, on ER-α, the Emax is not below 40% and the DC50 was not above 100 nM.

With `CN(C)CCn1cc(-c2ccc(/C(=C(/c3ccccc3)C3CCC3)c3ccc(/C=C/C(=O)O)cc3)cc2)cn1` [Example 70, (E)-3-(4-((E)-2-Cyclobutyl-1-(4-(1-(2-(dimethylamino)ethyl)-1H-pyrazol-4-yl)phenyl)-2-phenylvinyl)phenyl)acrylic acid], in the assay with MCF-7 cells, the “MCF7 Viability Assay Max Response” value is reported as “++ (++ = a single % value ≧ 40%)” and the 50% inhibitory concentration (IC50) is not above 100 nM. Besides, on ER-α, the Emax was not below 40% and the DC50 was not above 100 nM.

For the compound `Fc1ccc(/C(=C(\c2ccc(/C=C/c3nn[nH]n3)cc2)c2ccc(-c3cn[nH]c3)cc2)C2CCC2)c(Cl)c1` [Example 71, 5-((E)-4-((E)-1-(4-(1H-Pyrazol-4-yl)phenyl)-2-(2-chloro-4-fluorophenyl)-2-cyclobutylvinyl)styryl)-2H-tetrazole], in the assay with MCF-7 cells, the “MCF7 Viability Assay Max Response” value was “++ (++ = a single % value ≧ 40%)” and the IC50 was not above 100 nM. On ER-α, the Emax is not below 40% and the DC50 was not above 100 nM.
